Measurements from patent US10538517B2, “Quinolone derivatives as FGFR inhibitors” (Principia Biopharma, Inc., priority 2015, dated 2020).
pIC50: −log10 of the molar value. Read-outs that look alike come from different tables or passages of the source.

System: SNU-16 cells
Test: Inhibition of FGFR2-dependent cell growth (Cell-titer Glo)
Format: cell-based
Settings: Homo sapiens, 72 hrs incubation, cell viability, read-out: SNU16 IC50 values
Method: The cell-based effects of FGFR inhibitors were determined by measuring inhibition of FGFR-dependent cell line growth. The cell lines SNU-16 was used for these assays. […] Percent inhibition of cell growth was calculated as a percentage of untreated cell viability. The percent inhibition was plotted as a function of log compound concentration. The IC50 was then calculated for each compound using Prism software from GraphPad.

SMILES | pIC50 (SNU-16, 72 h) | pIC50
CNc1ncc2cc(-c3cc(OC)cc(OC)c3Cl)c(=O)n(CCc3ccnc(NC(=O)C(C#N)=CC(C)(C)N)c3)c2n1 [Cpd 20 (table 2), 4-amino-N-(4-(2-(6-(2-chloro-3,5-dimethoxyphenyl)-2-(methylamino)-7-oxopyrido[2,3-d]pyrimidin-8(7H)-yl)ethyl)pyridin-2-yl)-2-cyano-4-methylpent-2-enamide] | 7.04 | 
CNc1ncc2cc(-c3cc(OC)cc(OC)c3Cl)c(=O)n(CCN3C[C@@H]4CN(C(=O)C(C#N)=CC(C)(C)C)C[C@@H]4C3)c2n1 [Cpd 6 (table 1), 2-((3aR,6aS)-5-(2-(6-(2-chloro-3,5-dimethoxyphenyl)-2-(methylamino)-7-oxopyrido[2,3-d]pyrimidin-8(7H)-yl)ethyl)octahydropyrrolo[3,4-c]pyrrole-2-carbonyl)-4,4-dimethylpent-2-enenitrile] | 6.19 | 
CNc1ncc2cc(-c3cc(OC)cc(OC)c3Cl)c(=O)n(CCc3cccc(NC(=O)C(C#N)=CC(C)(C)N(C)C4COC4)c3)c2n1 [Cpd 43 (table 2), N-(3-(2-(6-(2-chloro-3,5-dimethoxyphenyl)-2-(methylamino)-7-oxopyrido[2,3-d]pyrimidin-8(7H)-yl)ethyl)phenyl)-2-cyano-4-methyl-4-(methyl(oxetan-3-yl)amino)pent-2-enamide] | 8.62 | 
CNc1ncc2cc(-c3cc(OC)cc(OC)c3Cl)c(=O)n(CCc3cccc(NC(=O)C(C#N)=CC(C)(C)N4CCC(O)CC4)c3)c2n1 [Cpd 53 (table 2), N-(3-(2-(6-(2-chloro-3,5-dimethoxyphenyl)-2-(methylamino)-7-oxopyrido[2,3-d]pyrimidin-8(7H)-yl)ethyl)phenyl)-2-cyano-4-(4-hydroxypiperidin-1-yl)-4-methylpent-2-enamide] | 8.29 | 
CNc1ncc2cc(-c3cc(OC)cc(OC)c3)c(=O)n(CCc3ccc(NC(=O)C(C#N)=CC(C)(C)N)cc3)c2n1 [Cpd 9 (table 2), 4-amino-2-cyano-N-(4-(2-(6-(3,5-dimethoxyphenyl)-2-(methylamino)-7-oxopyrido[2,3-d]pyrimidin-8(7H)-yl)ethyl)phenyl)-4-methylpent-2-enamide] |  | 7.53
CNc1ncc2cc(-c3cc(OC)cc(OC)c3Cl)c(=O)n(CCc3ccc(NC(=O)C(C#N)=CC(C)(C)N)nc3)c2n1 [Cpd 21 (table 2), 4-amino-N-(5-(2-(6-(2-chloro-3,5-dimethoxyphenyl)-2-(methylamino)-7-oxopyrido[2,3-d]pyrimidin-8(7H)-yl)ethyl)pyridin-2-yl)-2-cyano-4-methylpent-2-enamide] | 7.48 | 
CNc1ncc2cc(-c3cc(OC)cc(OC)c3Cl)c(=O)n(CCc3cnc(NC(=O)C(C#N)=CC(C)(C)C)cn3)c2n1 [Cpd 71 (table 2), N-(5-(2-(6-(2-chloro-3,5-dimethoxyphenyl)-2-(methylamino)-7-oxopyrido[2,3-d]pyrimidin-8(7H)-yl)ethyl)pyrazin-2-yl)-2-cyano-4,4-dimethylpent-2-enamide] | 7.10 | 
CNc1ncc2cc(-c3cc(OC)cc(OC)c3)c(=O)n(CCc3cccc(NC(=O)C(C#N)=CC(C)(C)N)c3)c2n1 [Cpd 11 (table 2), 4-amino-2-cyano-N-(3-(2-(6-(3,5-dimethoxyphenyl)-2-(methylamino)-7-oxopyrido[2,3-d]pyrimidin-8(7H)-yl)ethyl)phenyl)-4-methylpent-2-enamide] | 7.13 | 
CNc1ncc2cc(-c3cc(OC)cc(OC)c3Cl)c(=O)n(CCN3CCN(C(=O)C(C#N)=CC(C)(C)C)CC3)c2n1 [Cpd 2 (table 1), 2-(4-(2-(6-(2-chloro-3,5-dimethoxyphenyl)-2-(methylamino)-7-oxopyrido[2,3-d]pyrimidin-8(7H)-yl)ethyl)piperazine-1-carbonyl)-4,4-dimethylpent-2-enenitrile] | 7.29 | 
CNc1ncc2cc(-c3cc(OC)cc(OC)c3Cl)c(=O)n(CCCc3ccc(C=C(C#N)C(=O)NC(C)(C)C)cc3)c2n1 [Cpd 75 (table 2), N-(tert-butyl)-3-(4-(3-(6-(2-chloro-3,5-dimethoxyphenyl)-2-(methylamino)-7-oxopyrido[2,3-d]pyrimidin-8(7H)-yl)propyl)phenyl)-2-cyanoacrylamide] | 7.06 | 
CNc1ncc2cc(-c3cc(OC)cc(OC)c3Cl)c(=O)n(CCc3cccc(NC(=O)C(C#N)=CC(C)(C)N)n3)c2n1 [Cpd 17 (table 2), 4-amino-N-(6-(2-(6-(2-chloro-3,5-dimethoxyphenyl)-2-(methylamino)-7-oxopyrido[2,3-d]pyrimidin-8(7H)-yl)ethyl)pyridin-2-yl)-2-cyano-4-methylpent-2-enamide] | 8.09 | 
CNc1ncc2cc(-c3cc(OC)cc(OC)c3Cl)c(=O)n(CCc3ccc(NC(=O)C(C#N)=CC(C)(C)N4C[C@@H](C)N(C)[C@@H](C)C4)cc3)c2n1 [Cpd 60 (table 2), N-(4-(2-(6-(2-chloro-3,5-dimethoxyphenyl)-2-(methylamino)-7-oxopyrido[2,3-d]pyrimidin-8(7H)-yl)ethyl)phenyl)-2-cyano-4-methyl-4-((3S,5R)-3,4,5-trimethylpiperazin-1-yl)pent-2-enamide] | 8.25 | 
CCN(CC)CCCCNc1ncc2cc(-c3c(Cl)c(OC)cc(OC)c3Cl)c(=O)n(Cc3cccc(NC(=O)C(C#N)=CC(C)C)c3)c2n1 [Cpd 5 (table 2), 2-cyano-N-(3-((6-(2,6-dichloro-3,5-dimethoxyphenyl)-2-((4-(diethylamino)butyl)amino)-7-oxopyrido[2,3-d]pyrimidin-8(7H)-yl)methyl)phenyl)-4-methylpent-2-enamide] | 8.82 | 
CNc1ncc2cc(-c3cc(OC)cc(OC)c3Cl)c(=O)n(CCc3cccc(N(C)C(=O)C(C#N)=CC(C)(C)N)c3)c2n1 [Cpd 26 (table 2), 4-amino-N-(3-(2-(6-(2-chloro-3,5-dimethoxyphenyl)-2-(methylamino)-7-oxopyrido[2,3-d]pyrimidin-8(7H)-yl)ethyl)phenyl)-2-cyano-N,4-dimethylpent-2-enamide] | 7.25 | 
CNc1ncc2cc(-c3cc(OC)cc(OC)c3)c(=O)n(CCc3ccc(NC(=O)C(C#N)=CC(C)(C)C)cc3)c2n1 [Cpd 8 (table 2), 2-cyano-N-(4-(2-(6-(3,5-dimethoxyphenyl)-2-(methylamino)-7-oxopyrido[2,3-d]pyrimidin-8(7H)-yl)ethyl)phenyl)-4,4-dimethylpent-2-enamide] |  | 7.73
CNc1ncc2cc(-c3cc(OC)cc(OC)c3Cl)c(=O)n(CCc3cccc(NC(=O)C(C#N)=CC(C)(C)C)n3)c2n1 [Cpd 16 (table 2), N-(6-(2-(6-(2-chloro-3,5-dimethoxyphenyl)-2-(methylamino)-7-oxopyrido[2,3-d]pyrimidin-8(7H)-yl)ethyl)pyridin-2-yl)-2-cyano-4,4-dimethylpent-2-enamide] | 7.36 | 
CNc1ncc2cc(-c3cc(OC)cc(OC)c3Cl)c(=O)n(CCc3ccc(NC(=O)C(C#N)=CC(C)(C)N(C)C4COC4)cc3)c2n1 [Cpd 29 (table 2), N-(4-(2-(6-(2-chloro-3,5-dimethoxyphenyl)-2-(methylamino)-7-oxopyrido[2,3-d]pyrimidin-8(7H)-yl)ethyl)phenyl)-2-cyano-4-methyl-4-(methyl(oxetan-3-yl)amino)pent-2-enamide] | 8.85 | 
COc1cc(OC)c(Cl)c(-c2cc3cnc(NCC(C)(C)O)nc3n(CCc3cccc(NC(=O)C(C#N)=CC(C)(C)C)c3)c2=O)c1 [Cpd 52 (table 2), N-(3-(2-(6-(2-chloro-3,5-dimethoxyphenyl)-2-((2-hydroxy-2-methylpropyl)amino)-7-oxopyrido[2,3-d]pyrimidin-8(7H)-yl)ethyl)phenyl)-2-cyano-4,4-dimethylpent-2-enamide] | 7.80 | 
CCOC(C)(C)C=C(C#N)C(=O)Nc1ccc(CCn2c(=O)c(-c3cc(OC)cc(OC)c3Cl)cc3cnc(NC)nc32)cc1 [Cpd 27 (table 2), N-(4-(2-(6-(2-chloro-3,5-dimethoxyphenyl)-2-(methylamino)-7-oxopyrido[2,3-d]pyrimidin-8(7H)-yl)ethyl)phenyl)-2-cyano-4-ethoxy-4-methylpent-2-enamide] | 8.38 | 
COc1cc(OC)c(Cl)c(-c2cc3cnc(N)nc3n(CCc3cccc(NC(=O)C(C#N)=CC(C)(C)C)c3)c2=O)c1 [Cpd 50 (table 2), N-(3-(2-(2-amino-6-(2-chloro-3,5-dimethoxyphenyl)-7-oxopyrido[2,3-d]pyrimidin-8(7H)-yl)ethyl)phenyl)-2-cyano-4,4-dimethylpent-2-enamide] | 8.34 | 
CCN(CC)CCCCNc1ncc2cc(-c3c(Cl)c(OC)cc(OC)c3Cl)c(=O)n(CCc3ccc(NC(=O)C(C#N)=CC(C)C)cc3)c2n1 [Cpd 4 (table 2), 2-cyano-N-(4-(2-(6-(2,6-dichloro-3,5-dimethoxyphenyl)-2-((4-(diethylamino)butyl)amino)-7-oxopyrido[2,3-d]pyrimidin-8(7H)-yl)ethyl)phenyl)-4-methylpent-2-enamide] | 8.28 | 
CNc1ncc2cc(-c3cc(OC)cc(OC)c3Cl)c(=O)n(CCc3cccc(N(C)C(=O)C(C#N)=CC(C)(C)N(C)C)c3)c2n1 [Cpd 39 (table 2), N-(3-(2-(6-(2-chloro-3,5-dimethoxyphenyl)-2-(methylamino)-7-oxopyrido[2,3-d]pyrimidin-8(7H)-yl)ethyl)phenyl)-2-cyano-4-(dimethylamino)-N,4-dimethylpent-2-enamide] | 7.40 | 
CNc1ncc2cc(-c3cc(OC)cc(OC)c3Cl)c(=O)n(CCc3ccc(NC(=O)C(C#N)=CC(C)(C)N4CCN(C5COC5)CC4)cc3)c2n1 [Cpd 61 (table 2), N-(4-(2-(6-(2-chloro-3,5-dimethoxyphenyl)-2-(methylamino)-7-oxopyrido[2,3-d]pyrimidin-8(7H)-yl)ethyl)phenyl)-2-cyano-4-methyl-4-(4-(oxetan-3-yl)piperazin-1-yl)pent-2-enamide] | 8.37 | 
COc1cc(OC)c(Cl)c(-c2cc3cnc(NCCN4CCOCC4)nc3n(CCc3ccc(NC(=O)C(C#N)=CC(C)(C)C)cc3)c2=O)c1 [Cpd 68 (table 2), N-(4-(2-(6-(2-chloro-3,5-dimethoxyphenyl)-2-((2-morpholinoethyl)amino)-7-oxopyrido[2,3-d]pyrimidin-8(7H)-yl)ethyl)phenyl)-2-cyano-4,4-dimethylpent-2-enamide] | 7.45 | 
